Laboratory results published in US9750256B2, “Herbicidal isoxazolo[5,4-B]pyridines” (BASF SE, priority 2012, dated 2017).

Columns and labels:
Type in all cases: in vivo
[1] = test system: Amaranthus retroflexus L. (pigweed); experiment: Greenhouse post-emergence treatment of Amaranthus retroflexus L.; conditions: scale 0 (no damage) to 100 (complete destruction)
Excerpt: (§1) The culture containers used were plastic flowerpots containing loamy sand with approximately 3.0% of humus as the substrate. The seeds of the test plants were sown separately for each species.
(§2) For the post-emergence treatment, the test plants were first grown to a height of 3 to 15 cm, depending on the plant habit, and only then treated with the active ingredients which had been suspended or emulsified in water. For this purpose, the test plants were either sown directly and grown in the same containers, or they were first grown separately as seedlings and transplanted into the test containers a few days prior to treatment.
(§3) Depending on the species, the plants were kept at 10-25° C. or 20-35° C. The test period extended over 2 to 4 weeks. During this time, the plants were tended, and their response to the individual treatments was evaluated.
(§4) Evaluation was carried out using a scale from 0 to 100. 100 means no emergence of the plants, or complete destruction of at least the aerial moieties, and 0 means no damage, or normal course of growth. A good herbicidal activity is given at values of at least 80 and a very good herbicidal activity is given at values of at least 90.

[2] = test system: Chenopodium album (fat-hen); experiment: Greenhouse post-emergence treatment of Chenopodium album; conditions: scale 0 (no damage) to 100 (complete destruction)
Excerpt: as §1, §2, §3, §4

[3] = test system: Setaria viridis (green foxtail); experiment: Greenhouse post-emergence treatment of Setaria viridis; conditions: application rate 500 [kg/ha], scale 0 (no damage) to 100 (complete destruction)
Excerpt: as §1, §2, §3, §4

[4] = test system: Polygonum convolvulus (wild buckwheat); experiment: Greenhouse post-emergence treatment of Polygonum convolvulus; conditions: scale 0 (no damage) to 100 (complete destruction)
Excerpt: as §1, §2, §3, §4

[5] = test system: Echinochloa crus-galli (barnyard grass); experiment: Greenhouse post-emergence treatment of Echinochloa crus-galli; conditions: application rate 500 [kg/ha], scale 0 (no damage) to 100 (complete destruction)
Excerpt: as §1, §2, §3, §4

Row | SMILES | damage [%] ([1]; application rate 500 [g/ha]) | damage [%] ([2]; application rate 500 [kg/ha]) | other results
1 | O=C(O)c1cc(C2CC2)nc2onc(OC3CCC3)c12 [I.a.92] | 100 | 100 | damage [%] [3]: 85%
2 | O=C(O)c1cc(C2CC2)nc2onc(OC3COC3)c12 [I.a.89] | 70 | 70 | –
3 | CCC(CCc1noc2nc(C3CC3)cc(C(=O)O)c12)=NN [I.a.81] | – | 75 | –
4 | CCC(CCc1noc2nc(C3CC3)cc(C(=O)O)c12)=NO (mixture of isomers) [I.a.79] | 100 | – | damage [%] ([4]; application rate 500 [kg/ha]): 85%
5 | O=C(O)c1cc(C2CC2)nc2onc(OC3CCCC3)c12 [I.a.91] | 100 | 98 | –
6 | CCC(=O)CCc1noc2nc(C3CC3)cc(C(=O)O)c12 [I.a.74] | 98 | 98 | –
7 | COCCOc1noc2nc(C3CC3)cc(C(=O)O)c12 [I.a.67] | – | – | damage [%] ([2]; application rate 1000 [kg/ha]): 100%; damage [%] ([4]; application rate 1000 [kg/ha]): 98%
8 | CCC(CCc1noc2nc(C3CC3)cc(C(=O)O)c12)=NOC (mixture of isomers) [I.a.80] | 100 | 98 | damage [%] ([4]; application rate 500 [kg/ha]): 100%
9 | O=C(O)c1cc(C2CC2)nc2onc(SC3CCCC3)c12 [I.a.87] | 80 | 70 | damage [%] [5]: 75%
10 | O=C(O)c1cc(C2CC2)nc2onc(SCc3ccccc3)c12 [I.a.85] | – | – | damage [%] [5]: 70%
11 | O=C(O)c1cc(C2CC2)nc2onc(OC3CCCCC3Cl)c12 (stereo not shown) [I.a.88] | 100 | 100 | –
12 | O=C(O)c1cc(C2CC2)nc2onc(OCc3ccccc3)c12 [I.a.66] | – | – | damage [%] ([1]; application rate 1000 [g/ha]): 100%; damage [%] ([2]; application rate 1000 [kg/ha]): 100%
13 | C=CCOc1noc2nc(C3CC3)cc(C(=O)O)c12 [I.a.44] | – | – | damage [%] ([1]; application rate 1000 [g/ha]): 100%; damage [%] ([2]; application rate 1000 [kg/ha]): 100%
14 | O=C(O)c1cc(C2CC2)nc2onc(SC3CCCCC3)c12 [I.a.86] | 95 | – | –
15 | O=C(NCC(F)(F)F)NN=CCCc1noc2nc(C3CC3)cc(C(=O)O)c12 [I.a.60] | – | – | damage [%] ([4]; application rate 500 [kg/ha]): 95%
16 | CON=CCCc1noc2nc(C3CC3)cc(C(=O)O)c12 [I.a.59] | 98 | 98 | –
